Test results: ChEMBL document CHEMBL3124812, “Benzamidobenzoic acids as potent PqsD inhibitors for the treatment of Pseudomonas aeruginosa infections” (Eur J Med Chem, 2014)
Values belong to the compound of their own block, whether it stands above or below them. Activity calls are given as the source filed them. The rule behind the calls is not given here.

Columns and labels:
Pseudomonas aeruginosa [1] = assay: Inhibition of Pseudomonas aeruginosa His-6-tagged PqsD expressed in Escherichia coli BL21 (lambdaDE3) using anthraniloyl-CoA/beta-ketodecanoic acid at 50 uM as substrate by LC-MS/MS analysis
Escherichia coli [2] = assay: Inhibition of Escherichia coli RNAP assessed as incorporation of [5,6-3H]UTP at 200 uM preincubated for 10 mins followed by DNA template and ATP, CTP, GTP, UTP, [5,6-3H]UTP addition measured after 10 mins by scintillation counting analysis
[3] = Inhibition of Pseudomonas aeruginosa His-6-tagged PqsD expressed in Escherichia coli BL21 (lambdaDE3) using anthraniloyl-CoA/beta-ketodecanoic acid as substrate by LC-MS/MS analysis
Escherichia coli [4] = assay: Inhibition of Escherichia coli RNAP assessed as incorporation of [5,6-3H]UTP at 50 uM preincubated for 10 mins followed by DNA template and ATP, CTP, GTP, UTP, [5,6-3H]UTP addition measured after 10 mins by scintillation counting analysis
Escherichia coli [5] = assay: Inhibition of Escherichia coli RNAP assessed as incorporation of [5,6-3H]UTP at 100 uM preincubated for 10 mins followed by DNA template and ATP, CTP, GTP, UTP, [5,6-3H]UTP addition measured after 10 mins by scintillation counting analysis
Pseudomonas aeruginosa [6] = assay: Inhibition of Pseudomonas aeruginosa His-6-tagged PqsD expressed in Escherichia coli BL21 (lambdaDE3) using anthraniloyl-CoA/beta-ketodecanoic acid at 10 uM as substrate by LC-MS/MS analysis
[7] = Inhibition of Escherichia coli RNAP assessed as incorporation of [5,6-3H]UTP preincubated for 10 mins followed by DNA template and ATP, CTP, GTP, UTP, [5,6-3H]UTP addition measured after 10 mins by scintillation counting analysis
Pseudomonas aeruginosa [8] = assay: Inhibition of Pseudomonas aeruginosa His-6-tagged PqsD expressed in Escherichia coli BL21 (lambdaDE3) using anthraniloyl-CoA/beta-ketodecanoic acid at 25 uM as substrate by LC-MS/MS analysis
[9] = Selectivity index, ratio of IC50 for Escherichia coli RNAP to IC50 for Pseudomonas aeruginosa PqsD

- inhibition (Pseudomonas aeruginosa [1]): 55%
SMILES: O=C(Nc1ccccc1C(=O)O)c1ccc(-c2ccccc2)cc1

- inhibition (Escherichia coli [2]): 25%
- IC50 [3]: Not Active
SMILES: O=C(O)c1ccc(Br)c(NC(=O)c2ccc(-c3ccccc3)cc2)c1

- inhibition (Escherichia coli [4]): inactive
SMILES: CCN(CC)S(=O)(=O)c1cc(C(=O)Nc2ccc(Br)cc2C(=O)O)ccc1Br

- inhibition (Escherichia coli [5]): 15%
- inhibition (Pseudomonas aeruginosa [6]): inactive
SMILES: O=C(O)c1ccc(NC(=O)c2ccc(-c3ccccc3)cc2)cc1

- inhibition (Pseudomonas aeruginosa [1]): 42%
SMILES: Cc1ccc(NC(=O)c2ccc(-c3ccccc3)cc2)c(C(=O)O)c1

- inhibition (Escherichia coli [5]): inactive
SMILES: CCN(CC)S(=O)(=O)c1cccc(C(=O)Nc2cc(Cl)ccc2C(=O)O)c1

- inhibition (Escherichia coli [5]): inactive
SMILES: CCN(CC)S(=O)(=O)c1cc(C(=O)Nc2ccc(F)cc2C(=O)O)ccc1Br

- IC50 ([3]; read-out: IC50): 1.3 µM
- IC50 ([7]; read-out: IC50): 35 µM
SMILES: O=C(O)c1cc(Br)ccc1NS(=O)(=O)c1ccc(-c2ccccc2)cc1

- inhibition (Pseudomonas aeruginosa [1]): 35%
- IC50 ([7]; read-out: IC50): 13 µM
SMILES: O=C(Nc1cc(-c2ccc(Cl)cc2)sc1C(=O)O)c1ccc(-c2ccccc2)cc1

- inhibition (Pseudomonas aeruginosa [1]): 20%
SMILES: O=C(Nc1cccc(Cl)c1C(=O)O)c1ccc(-c2ccccc2)cc1

- inhibition (Pseudomonas aeruginosa [1]): 27%
SMILES: COc1cc(NC(=O)c2ccc(-c3ccccc3)cc2)c(C(=O)O)cc1OC

- IC50 [3]: Not Active
- IC50 [7]: Not Active
SMILES: COC(=O)c1cc(Br)ccc1NC(=O)c1ccc(-c2ccccc2)cc1

- inhibition (Escherichia coli [2]): 28%
- IC50 ([3]; read-out: IC50): 5.2 µM
SMILES: O=C(Nc1ccsc1C(=O)O)c1ccc(-c2ccccc2)cc1

- IC50 [3]: Not Active
- IC50 [7]: Not Active
SMILES: NC(=O)c1cc(Br)ccc1NC(=O)c1ccc(-c2ccccc2)cc1

- inhibition (Pseudomonas aeruginosa [8]): 25%
- inhibition (Escherichia coli [5]): 31%
SMILES: O=C(O)c1cccc(NC(=O)c2ccc(-c3ccccc3)cc2)c1

- inhibition (Escherichia coli [5]): inactive
SMILES: CCN(CC)S(=O)(=O)c1cccc(C(=O)Nc2ccc(F)cc2C(=O)O)c1

- inhibition (Pseudomonas aeruginosa [1]): 21%
SMILES: O=C(Nc1cccc(F)c1C(=O)O)c1ccc(-c2ccccc2)cc1

- inhibition (Pseudomonas aeruginosa [1]): 37%
SMILES: O=C(Nc1ccccc1C(=O)O)c1cccc(Oc2ccccc2)c1

- IC50 ([3]; read-out: IC50): 9.8 µM
- IC50 ([7]; read-out: IC50): 10 µM
SMILES: O=C(Nc1cc(-c2ccccc2)sc1C(=O)O)c1ccc(-c2ccccc2)cc1

- inhibition (Escherichia coli [5]): inactive
SMILES: CCN(CC)S(=O)(=O)c1cccc(C(=O)Nc2ccc(-c3ccccc3)cc2C(=O)O)c1

- IC50 ([7]; read-out: IC50): 78 µM
SMILES: CCN(CC)S(=O)(=O)c1cccc(C(=O)Nc2ccc(-c3ccc(C(N)=O)cc3)cc2C(=O)O)c1

- inhibition (Escherichia coli [4]): inactive
SMILES: CCN(CC)S(=O)(=O)c1cccc(C(=O)Nc2ccc(Br)cc2C(=O)O)c1

- inhibition (Pseudomonas aeruginosa [1]): 46%
SMILES: COc1ccc(NC(=O)c2ccc(-c3ccccc3)cc2)c(C(=O)O)c1

- inhibition (Escherichia coli [2]): 33%
- IC50 ([3]; read-out: IC50): 19.5 µM
SMILES: O=C(Nc1cscc1C(=O)O)c1ccc(-c2ccccc2)cc1

- inhibition (Escherichia coli [4]): 23%
SMILES: CCN(CC)S(=O)(=O)c1cccc(C(=O)Nc2ccc(-c3ccc(C(=O)O)cc3)cc2C(=O)O)c1

- IC50 ([3]; read-out: IC50): 1.3 µM
- Ratio IC50 [9]: 50
- IC50 ([7]; read-out: IC50): 74 µM
SMILES: O=C(Nc1cccc(O)c1C(=O)O)c1ccc(-c2ccccc2)cc1

- inhibition (Escherichia coli [2]): inactive
SMILES: CCN(CC)S(=O)(=O)c1cccc(C(=O)Nc2ccccc2C(=O)O)c1

- IC50 ([3]; read-out: IC50): 32.6 µM
- IC50 ([7]; read-out: IC50): 110 µM
SMILES: O=C(O)c1cc(Br)cc(NC(=O)c2ccc(-c3ccccc3)cc2)c1

- inhibition (Escherichia coli [2]): inactive
SMILES: CCc1ccc(C(=O)Nc2ccccc2C(=O)O)cc1S(=O)(=O)N(CC)CC

- inhibition (Escherichia coli [2]): 29%
SMILES: CCN(Cc1ccccc1)S(=O)(=O)c1cccc(C(=O)Nc2ccccc2C(=O)O)c1

- inhibition (Escherichia coli [2]): inactive
SMILES: CCN(CC)C(=O)c1cccc(C(=O)Nc2ccccc2C(=O)O)c1

- inhibition (Escherichia coli [2]): inactive
SMILES: CCN(CC)S(=O)(=O)c1cccc(C(=O)Nc2cccc(F)c2C(=O)O)c1

- inhibition (Escherichia coli [2]): inactive
SMILES: CN(C)S(=O)(=O)c1cccc(C(=O)Nc2ccccc2C(=O)O)c1

- inhibition (Pseudomonas aeruginosa [1]): 45%
- IC50 ([7]; read-out: IC50): 9 µM
SMILES: COc1ccc(-c2cc(NC(=O)c3ccc(-c4ccccc4)cc3)c(C(=O)O)s2)cc1

- inhibition (Escherichia coli [2]): 28%
SMILES: CCN(CC)S(=O)(=O)c1ccc(C(=O)Nc2ccc(Br)cc2C(=O)O)cc1

- inhibition (Pseudomonas aeruginosa [1]): 27%
SMILES: COc1cc(NC(=O)c2cccc(Oc3ccccc3)c2)c(C(=O)O)cc1OC

- inhibition (Escherichia coli [2]): inactive
SMILES: CCN(CC)S(=O)(=O)c1cccc(C(=O)Nc2cccc(Cl)c2C(=O)O)c1

- IC50 ([3]; read-out: IC50): 15.7 µM
- IC50 ([7]; read-out: IC50): 161 µM
SMILES: O=C(Nc1sccc1C(=O)O)c1ccc(-c2ccccc2)cc1

- inhibition (Escherichia coli [4]): inactive
SMILES: CCN(CC)S(=O)(=O)c1cccc(C(=O)Nc2ccc(C(F)(F)F)cc2C(=O)O)c1

- inhibition (Pseudomonas aeruginosa [1]): 57%
SMILES: O=C(Nc1ccc(F)cc1C(=O)O)c1cccc(Oc2ccccc2)c1

- inhibition (Pseudomonas aeruginosa [1]): 28%
- inhibition (Escherichia coli [4]): 33%
SMILES: O=C(Nc1sc(-c2ccccc2)cc1C(=O)O)c1ccc(-c2ccccc2)cc1

- inhibition (Escherichia coli [5]): 30%
SMILES: CCN(CC)S(=O)(=O)c1cccc(C(=O)Nc2ccc([N+](=O)[O-])cc2C(=O)O)c1

- IC50 [3]: Not Active
- IC50 [7]: Not Active
SMILES: N#Cc1cc(Br)ccc1NC(=O)c1ccc(-c2ccccc2)cc1

- inhibition (Escherichia coli [2]): inactive
SMILES: O=C(Nc1ccccc1C(=O)O)c1cccc(S(=O)(=O)N2CCOCC2)c1

- inhibition (Pseudomonas aeruginosa [8]): 43%
SMILES: COc1ccc(C(=O)O)c(NC(=O)c2ccc(-c3ccccc3)cc2)c1
